Experimental data as given in patent US9944607B2, “Thiohydantoin derivatives and uses thereof” (Whitehead Institute for Biomedical Research, priority 2012, dated 2018).
Values after ≈ are worked out from the molar mass of the structure shown. Like-named read-outs stand apart in the source and are kept apart here.

Experiments:
[1] = system: Saccharomyces cerevisiae W303; test: Secondary S. cerevisiae inhibition in glucose media (OD600); assay type: cell-based; conditions: for IC50: read-out: Growth Inhibition Activity, IC50 (μM), S. cerevisiae (n = 3) On glucose
Description: (§1) Cell Lines. • Candida albicans CaCi-2; a drug-resistant clinical isolate was provided by the Whitehead Institute (Redding et al., Clin. Infect. Dis. 1994, 18(2):240-2). This strain was used for the primary assay. • Candida albicans CaCi-17; a strongly drug-resistant clinical isolate was provided by the Whitehead Institute (Redding et al., Clin. Infect. Dis. 1994, 18(2):240-2). This strain was used for the primary assay • Saccharyomyces cerevisiae W303-1a (ATCC 208352); a well-characterized Saccharomyces strain used for determination of glycolytic vs. respiratory metabolism, as well as in the mitochondrial disruption assay. • Candida glabrata (ATCC 2001); used for determination of glycolytic vs. respiratory metabolism. • NIH-3T3 mammalian fibroblasts (ATCC; CRL no.1658); used for mammalian toxicity assays. […]
(§2) Saccharomyces, while not a major human pathogen, is a useful lab model with well-developed genetic tools available. Candida glabrata is an increasingly prominent clinical problem for immune-compromised patients but with fewer genetic tools available with which to study it. These organisms can utilize alternative metabolic pathways to support growth and survival depending on the carbon source. By comparing the concentration-dependent inhibition of yeast growth in glycerol relative to glucose media, a quantitative assessment of a compound's ability to disrupt respiration can be determined. […].
(§3) Procedures • Use a Thermo Combi nL to dispense 20 μL/well of assay media into all wells. • Add 2 μL of Amphotericin B to control wells. • Pin 100 nL of test compound from compound plates into assay plates using a CyBi-Well pin tool. • Dispense 20 μL/well of culture into the assay media in all wells. • Incubate the plates in a humidified (90% humidity) Liconic incubator at 37° C. without agitation for 48 hours. • Shake plates briefly. • Read OD600 of wells on a standard plate reader as measure of relative fungal growth. Envision (Perkin Elmer) plate reader settings: Ex Photometric 600, Top read. Secondary Glucose Assay Protocol (AID 623971, 623967, 624013, 624025) Materials and Reagents
(§4) Clear, flat bottom, black 384-well plates (Corning, Catalog No. 3712BC; Lot No. 35808016); Amphotericin B (Sigma, Catalog no. A2411) 15 mM stock solution in DMSO; Pen/Strep (Gibco, Catalog No. 10378-016; Lot no21040170) 100× in PBS.
(§5) Synthetic defined growth medium. Complete Supplement Mixture; (Sunrise Science, Catalog No. 1001-100); Yeast Nitrogen Base without ammonium sulfate (MP Biomedicals, Catalog No. 4027-012); Glucose (Sigma, Catalog No. G7021). • Prepare medium by dissolving 0.79 g of Complete Supplement Mixture and 1.7 g of Yeast Nitrogen Base in 800 mL of water. • Add 20 g of glucose. Adjust final volume to 1000 mL. Filter sterilize.
(§6) Fungal Inoculum. Test Strains: C. glabrata (ATCC 2001) and Saccharomyces cerevisiae W303. • Inoculate 100 L of yeast from cryopreserved stock into a 250 mL shaker flask containing 20 mL of growth medium. Shake at 30° C. overnight (about 16 hours). • Read OD 600 of 1 mL of fungal culture in a cuvette using a standard optical density reader (Eppendorf BioPhotometer Plus), with growth medium as a background blank. • Dilute to desired volume of fungal inoculum to produce an OD600 reading of 0.005 (S. cerevisiae) or 0.004 (C. glabrata).
as §3, with “read. 4.5.” for “read.”, “Mitochondrial Disruption” for “Glucose”, “Assay” for “Assay Protocol”, “No. 624062” for “623971, 623967, 624013, 624025) Materials”, “624068)” for “Reagents”

[2] = system: Saccharomyces cerevisiae W303; test: Secondary S. cerevisiae inhibition in glycerol media (OD600); assay type: cell-based; conditions: for IC50: read-out: Growth Inhibition Activity, IC50 (μM), S. cerevisiae (n = 3) On glycerol
Description: as §1, §2
(§7) Clear, flat bottom, black 384-well plates (Corning Catalog no. 3712BC; Lot no. 35808016); Amphotericin B (Sigma Catalog no. A2411) 15 mM stock solution in DMSO; Pen/Strep (Gibco Catalog no. 10378-016; Lot no21040170) 100× in PBS.
as §5, with “4027-012); Glycerol (Sigma” for “4027-012); Glucose (Sigma,”, “No. G-9012).” for “No. G7021).”, “g” for “g of”, “mL” for “mL of”, “20 mL” for “20 g”, “of glycerol.” for “of glucose.”
as §6, with “Inoculate 100 μL of yeast” for “Inoculate 100 L of yeast”, “stock into 250 mL” for “stock into a 250 mL”, “20 mL growth medium.” for “20 mL of growth medium.”
as §3

C. glabrata (ATCC 2001) [3] = test: Secondary C. glabrata inhibition in glycerol media (OD600); assay type: cell-based, Candida glabrata; conditions: for IC50: read-out: Growth Inhibition Activity, IC50 (μM), C. glabrata (n = 3) On glycerol
Description: as §1, §2, §7
as §5, with “4027-012); Glycerol (Sigma” for “4027-012); Glucose (Sigma,”, “No. G-9012).” for “No. G7021).”, “g” for “g of”, “mL” for “mL of”, “20 mL” for “20 g”, “of glycerol.” for “of glucose.”
as §6, with “Inoculate 100 μL of yeast” for “Inoculate 100 L of yeast”, “stock into 250 mL” for “stock into a 250 mL”, “20 mL growth medium.” for “20 mL of growth medium.”
as §3

C. glabrata (ATCC 2001) [4] = test: Secondary C. glabrata inhibition in glucose media (OD600); assay type: cell-based, Candida glabrata; conditions: for IC50: read-out: Growth Inhibition Activity, IC50 (μM), C. glabrata (n = 3) On glucose
Description: as §1, §2, §3, §4, §5, §6
as §3, with “read. 4.5.” for “read.”, “Mitochondrial Disruption” for “Glucose”, “Assay” for “Assay Protocol”, “No. 624062” for “623971, 623967, 624013, 624025) Materials”, “624068)” for “Reagents”

[5] = Solubility in PBS pH 7.4 with 1% DMSO; conditions: for solubility at 24 h: phosphate buffered saline with 1% DMSO, pH 7.4, aqueous buffer, kinetic from dmso stock
Procedure: Solubility was determined in phosphate buffered saline (PBS) pH 7.4 with 1% DMSO. Each compound was prepared in duplicate at 100 μM in both 100% DMSO and PBS with 1% DMSO. Compounds were allowed to equilibrate at room temperature with a 250 rpm orbital shake for 24 hours. After equilibration, samples were analyzed by UPLC-MS (Waters, Milford, Mass.) with compounds detected by SIR detection on a single quadrupole mass spectrometer. The DMSO samples were used to create a two-point calibration curve to which the response in PBS was fit.

Candida albicans CaCi-17 = test: Primary assay: C. albicans CaCi-17 growth inhibition (Alamar Blue); assay type: cell-based; conditions: Candida albicans, read-out: Growth Inhibition Activity, IC50 (μM), C. albicans (n = 3) CaCi-17
[6] = system: NIH-3T3 mammalian fibroblasts; test: Counterscreen mammalian cell toxicity assay (Alamar Blue); assay type: cell-based, murine; conditions: for Growth Inhibition Activity, IC50 (μM), 3T3 Fibroblasts (n = 1): Table 4, 48 hours, tested up to 26 μM
Procedure: Quiescent murine fibroblasts were subjected to incubation with compounds of interest for 48 hours. Subsequent cell viability was determined via measuring Alamar Blue fluorescence.
Procedures • After overnight culture, pin compounds into wells at 100 nL/well using the CyBio CyBi-Well pinning instrument. • Return the plates to the tissue culture incubator and incubate the culture for an additional 48 hours at 37° C. under 5% CO2. • At the completion of this incubation, add Alamar Blue solution diluted 1:40 in PBS to each well (10 μL/well) to achieve a final dilution of 1:200. • Incubate the plates for an additional 2-3 hours at 37° C. under 5% CO2. • Read the Relative Fluorescence Intensity (RFU) of wells on a standard plate reader as a measure of relative cell growth. […] 4.4.

Candida albicans CaCi-2 = test: Primary assay: C. albicans CaCi-2 growth inhibition (Alamar Blue); assay type: cell-based; as to Growth Inhibition Activity, IC50 (μM), C. albicans CaCi-2, values marked ‡: less than 0.10 µM in AID 623899
[7] = Table 8, n = 3, glucose media, 48 hours, tested up to 3 μM
[8] = Table 8, n = 3, glycerol media, 48 hours, tested up to 3 μM
[9] = Saccharomyces cerevisiae, W303, 48 h
[10] = Nakaseomyces glabratus, ATCC2001, 48 h
[11] = Saccharomyces cerevisiae, W303, Table 8, n = 3, glucose media, 48 hours, tested up to 3 μM
[12] = Saccharomyces cerevisiae, W303, Table 8, n = 3, glycerol media, 48 hours, tested up to 3 μM
[13] = CACI17, Table 4, n = 3, 48 hours, tested up to 26 μM
[14] = Nakaseomyces glabratus, ATCC2001, Table 8, n = 3, glycerol media, 48 hours, tested up to 3 μM
[15] = Candida albicans, CACI2; read-out: Growth Inhibition Activity, IC50 (μM), C. albicans CaCi-2, values marked ‡
[16] = Nakaseomyces glabratus, ATCC2001, Table 8, n = 3, glucose media, 48 hours, tested up to 3 μM

For `C[C@@H]1[C@H](O)[C@@H](C)/C=C/C=C/C=C/C=C/C=C/C=C/C=C/[C@H](O[C@@H]2O[C@H](C)[C@@H](O)[C@H](N)[C@@H]2O)C[C@@H]2O[C@](O)(C[C@@H](O)C[C@@H](O)[C@H](O)CC[C@@H](O)C[C@@H](O)CC(=O)O[C@H]1C)C[C@H](O)[C@H]2C(=O)O` [Amphotericin B, reference compound], the IC50 [1, 7] was 0.38 µM, the “Growth inhibition of S. cerevisiae on glucose IC50” value ([1]; figure legends and Tables 9, 10, 13, AID 623971) was “significantly inhibited” and the IC50 [2, 8] was 0.26 µM. The “Growth inhibition of S. cerevisiae on glycerol IC50” value ([2]; figure legends and Tables 9, 10, 13, AID 623969) was “significantly inhibited”, the IC50 (C. glabrata (ATCC 2001) [3]; [8]) was 0.62 µM and the “Growth inhibition of C. glabrata on glycerol IC50” value (C. glabrata (ATCC 2001) [3]; figure legends and Tables 9, 10, 13, AID 623965) was “significantly inhibited”. For the same compound, the IC50 (C. glabrata (ATCC 2001) [4]; [7]) was 1.2 µM and the “Growth inhibition of C. glabrata on glucose IC50” value (C. glabrata (ATCC 2001) [4]; figure legends and Tables 9, 10, 13, AID 623967) was “significantly inhibited”.

For `CCOC(=O)N1C(=O)C2(CCCCC2)N(c2ccccc2)C1=S` [compound 56604821], the IC50 [1, 9] was > 3 µM, the solubility at 24 h [5] was 1.6 µM (≈ 0.532 µg/mL) and the IC50 [2, 9] was 0.015 µM. The IC50 (Candida albicans CaCi-17; CACI17, 48 h) was 4.2 µM, the IC50 (C. glabrata (ATCC 2001) [3]; [10]) was 0.026 µM and the “Growth Inhibition Activity, IC50 (μM), 3T3 Fibroblasts (n = 1)” value (shortened to “Growth Inhibition Activity, IC50 (μM)”) [6] was “Inactive”. For the same compound, the IC50 (Candida albicans CaCi-2; Candida albicans, CACI2, 48 h, read-out: Growth Inhibition Activity, IC50 (μM), C. albicans (n = 3) CaCi-2) was 0.2 µM and the IC50 (C. glabrata (ATCC 2001) [4]; [10]) was > 3 µM.

With `CCOC(=O)N1C(=O)C2(CCCCC2)N(c2ccc(C#N)cc2)C1=S` [compound 56604847] the IC50 [1, 11] was > 3 µM, the solubility at 24 h [5] was < 1 µM and the IC50 [2, 12] was 0.004 µM. For the same compound, the IC50 (Candida albicans CaCi-17; [13]) was 1.8 µM, the IC50 (C. glabrata (ATCC 2001) [3]; [14]) was 0.033 µM and the “Growth Inhibition Activity, IC50 (μM)” value [6] was “Inactive”. For the same compound, the IC50 (Candida albicans CaCi-2; [15]) was 0.08 µM and the IC50 (C. glabrata (ATCC 2001) [4]; [16]) was > 3 µM.

In the case of `CCOC(=O)N1C(=O)C2(CCCCC2)N(c2ccc(F)cc2)C1=S` [compound 56604860], the IC50 [1, 11] is reported as > 3 µM, the “PBS Solubility” value ([5]; Table 4, PBS pH 7.4 with 1% DMSO, 24 hours, room temperature) is reported as 1.1 µM and the IC50 [2, 12] is reported as 0.004 µM. The IC50 (Candida albicans CaCi-17; [13]) was 1 µM, the IC50 (C. glabrata (ATCC 2001) [3]; [14]) was 0.011 µM and the “Growth Inhibition Activity, IC50 (μM)” value [6] was “Inactive”. The IC50 (Candida albicans CaCi-2; [15]) was 0.04 µM and the IC50 (C. glabrata (ATCC 2001) [4]; [16]) was > 3 µM.

In the case of `CCOC(=O)N1C(=O)C2(CCCCC2)N(c2ccc(Cl)cc2)C1=S` [compound 56604865], the IC50 [1, 9] is reported as > 3 µM, the solubility at 24 h [5] is reported as < 1 µM and the IC50 [2, 9] is reported as 0.006 µM. The IC50 (Candida albicans CaCi-17; CACI17, 48 h) was 1.4 µM, the IC50 (C. glabrata (ATCC 2001) [3]; [10]) was 0.022 µM and the IC50 ([6]; Mus musculus, NIH3T3, 48 h, read-out: Growth Inhibition Activity, IC50 (μM), 3T3 Fibroblasts (n = 1)) was 22.3 µM. For the same compound, the IC50 (Candida albicans CaCi-2; Candida albicans, CACI2, read-out: Growth Inhibition Activity, IC50 (μM), C. albicans CaCi-2, values marked ‡) was 0.06 µM and the IC50 (C. glabrata (ATCC 2001) [4]; [10]) was > 3 µM.
